In BindingDB's records for PubMed 8496821 (Fujisawa Pharmaceutical, 1993):

Experiments:
[1] = biological target: 5-hydroxytryptamine receptor 2A (Rattus norvegicus, UniProt P14842)
D(2) dopamine receptor = D(2) dopamine receptor (Rattus norvegicus, UniProt P61169)
Chain of D(2) dopamine receptor (P61169 whole entry): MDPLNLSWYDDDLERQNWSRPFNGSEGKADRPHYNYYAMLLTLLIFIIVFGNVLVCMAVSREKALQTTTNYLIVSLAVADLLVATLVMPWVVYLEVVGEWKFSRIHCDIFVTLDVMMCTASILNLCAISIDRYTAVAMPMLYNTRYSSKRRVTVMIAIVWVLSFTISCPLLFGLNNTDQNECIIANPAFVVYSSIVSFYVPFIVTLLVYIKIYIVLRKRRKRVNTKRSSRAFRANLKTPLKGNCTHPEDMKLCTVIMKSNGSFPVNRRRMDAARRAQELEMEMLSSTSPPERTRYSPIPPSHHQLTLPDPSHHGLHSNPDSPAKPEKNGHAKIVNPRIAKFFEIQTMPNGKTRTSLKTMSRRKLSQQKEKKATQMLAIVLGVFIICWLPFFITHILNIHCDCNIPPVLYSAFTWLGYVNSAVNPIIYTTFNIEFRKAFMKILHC

Chain of 5-hydroxytryptamine receptor 2A (P14842 whole entry): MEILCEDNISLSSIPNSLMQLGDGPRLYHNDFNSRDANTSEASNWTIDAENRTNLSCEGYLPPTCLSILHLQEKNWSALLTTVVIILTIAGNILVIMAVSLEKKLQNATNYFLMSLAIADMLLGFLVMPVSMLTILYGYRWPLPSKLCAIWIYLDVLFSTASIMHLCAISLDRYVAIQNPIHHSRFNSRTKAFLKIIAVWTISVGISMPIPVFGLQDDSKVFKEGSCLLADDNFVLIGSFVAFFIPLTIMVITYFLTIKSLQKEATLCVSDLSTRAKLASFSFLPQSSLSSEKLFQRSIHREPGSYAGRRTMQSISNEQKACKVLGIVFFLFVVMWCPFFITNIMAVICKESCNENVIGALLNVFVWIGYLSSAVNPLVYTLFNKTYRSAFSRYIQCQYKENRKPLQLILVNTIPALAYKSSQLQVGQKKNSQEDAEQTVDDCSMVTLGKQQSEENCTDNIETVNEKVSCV

Cc1[nH]cnc1CC1CCc2c(C)c3ccccc3n2C1=O (configuration not stated) [CAS_125368]
Ki [1]: 0.01 nM
Ki (D(2) dopamine receptor): 0.01 nM
